This is an account of results in paper PMC6278284, “Synthesis of Jacaranone-Derived Nitrogenous Cyclohexadienones and Their Antiproliferative and Antiprotozoal Activities” (Molecules, 2018).

Series [1] has as its system MRC-5 non-tumorigenic lung fibroblasts. In words: XTT viability assay, MRC-5. Format: cell-based, human. As to conditions: 72 h; for viability at 5 µg/mL / viability at 50 µg/mL: Homo sapiens, MRC5, read-out: metabolic active cells in % of control; for viability at 5 µg/mL: MRC-5, 5 µg/mL; for viability at 50 µg/mL: MRC-5, 50 µg/mL; for cytotoxicity against human MRC-5 cells (in words): 5 µg/mL. How it is done:
(§1) Human CCRF-CEM leukemia and MDA-MB-231 breast cancer cells lines were kept in RPMI1640 medium (Gibco®, ThermoFisher Scientific Inc., New York, NY, USA), supplemented with 2 mM L-glutamine (Gibco®), 10% heat-inactivated foetal bovine serum (FBS, Gibco®), 100 units/mL Penicillin (PAA), and 100 µg/mL Streptomycin (Gibco®) (1% Pen/Strep). HCT-116 and U251 cells were cultured in high-glucose Dulbecco’s Modified Eagle Medium (DMEM, Gibco®) containing 2 mM L-glutamine, 10% FBS, and 1% Pen/Strep. MRC-5 cells were grown in Minimum Essential Medium (MEM, Gibco®) supplemented with 2 mM L-glutamine, 10% FBS, and 1% Pen/Strep. All cells were kept in a humidified 5% CO2 atmosphere at 37 °C and passaged at 90% confluence.
(§2) A Cell Proliferation Kit II (XTT) was purchased from Sigma-Aldrich and performed as described previously and in accordance with the manufacturer’s protocol. In brief, adherent cell lines were seeded at a density of 50,000 cells/mL or 100,000 cells/mL (MRC-5) in 96 well plates (100 µL, flat bottom) and grown for 24 h before test compounds were added. Suspension cells (CCRF-CEM) were seeded at 100,000 cells/mL and test compounds were added immediately. After 72 h, XTT solution was added for another 90 min or 4 h (CCRF-CEM cells) and absorbance was measured at 490 nm with a reference wave length of 650 nm (Hidex Sense Microplate Reader 425-301, Hidex, Turku, Finland). Results are expressed as a percentage of the vehicle-treated (0.5% DMSO) control cells. Vinblastine served as the positive control (0.01 µg/mL).

For another series, the system named is U251 glioblastoma cells. In words: XTT viability assay, U251. As to conditions: Homo sapiens, U-251, 72 h, read-out: metabolic active cells in % of control; for viability at 5 µg/mL: U251, 5 µg/mL; for viability at 50 µg/mL: U251, 50 µg/mL. In kind it is cell-based. How it is done:
as §1, §2

For series [2], the system named is human (cancer) cell lines (CCRF-CEM, MDA-MB-231, HCT-116, U251, MRC-5). In words: XTT viability assay, statements on the whole panel of cell lines. As to conditions: 72 h; for metabolic activity, % of the control: in all (13i) or almost all (13b) cell lines; for overall cytotoxicity (in words): 50 µg/mL, panel of cell lines. In kind it is cell-based. How it is done:
All synthesized dienones (13a–j, 14a, 14c, and 15) were evaluated for their cytotoxic activity against human (cancer) cell lines. To cover a range of different tumor entities, we used a panel of cancer cell lines (CCRF-CEM leukemia, MDA-MB-231 breast cancer, HCT-116 colon cancer, and U251 glioblastoma cells) as well as a non-tumorigenic human cell line (MRC-5 lung fibroblasts). All derivatives were screened for their cytotoxicity at 5 µg/mL and 50 µg/mL to cover a broad concentration range. Cells were exposed to the derivatives for 72 h. […] No clear correlation between cytotoxic and antiprotozoal effects could be drawn. […] Human CCRF-CEM leukemia and MDA-MB-231 breast cancer cells lines were kept in RPMI1640 medium (Gibco®, ThermoFisher Scientific Inc., New York, NY, USA), supplemented with 2 mM L-glutamine (Gibco®), 10% heat-inactivated foetal bovine serum (FBS, Gibco®), 100 units/mL Penicillin (PAA), and 100 µg/mL Streptomycin (Gibco®) (1% Pen/Strep). HCT-116 and U251 cells were cultured in high-glucose Dulbecco’s Modified Eagle Medium (DMEM, Gibco®) containing 2 mM L-glutamine, 10% FBS, and 1% Pen/Strep. MRC-5 cells were grown in Minimum Essential Medium (MEM, Gibco®) supplemented with 2 mM L-glutamine, 10% FBS, and 1% Pen/Strep. All cells were kept in a humidified 5% CO2 atmosphere at 37 °C and passaged at 90% confluence. A Cell Proliferation Kit II (XTT) was purchased from Sigma-Aldrich and performed as described previously and in accordance with the manufacturer’s protocol. In brief, adherent cell lines were seeded at a density of 50,000 cells/mL or 100,000 cells/mL (MRC-5) in 96 well plates (100 µL, flat bottom) and grown for 24 h before test compounds were added. Suspension cells (CCRF-CEM) were seeded at 100,000 cells/mL and test compounds were added immediately. After 72 h, XTT solution was added for another 90 min or 4 h (CCRF-CEM cells) and absorbance was measured at 490 nm with a reference wave length of 650 nm (Hidex Sense Microplate Reader 425-301, Hidex, Turku, Finland). Results are expressed as a percentage of the vehicle-treated (0.5% DMSO) control cells. Vinblastine served as the positive control (0.01 µg/mL).

Series [3] concerns P. falciparum, strain NF54, erythrocytic stages. In words: In vitro growth inhibition assay of Plasmodium falciparum NF54 ([3H]-hypoxanthine incorporation). As to conditions: for IC50: Plasmodium falciparum, strain NF54, erythrocytic stages, read-out: P. falc. IC50; for SI (IC50 in L6 cells/IC50 P. falciparum): ratio IC50 L6 / IC50 P. falciparum NF54. In kind it is cell-based. How it is done:
In vitro activity against erythrocytic stages of P. falciparum was determined by a modified [^3H]-hypoxanthine incorporation assay using the drug-sensitive NF54 strain and the standard drug, chloroquine (Sigma C6628). Briefly, parasite cultures incubated in RPMI 1640 medium with 5% AlbuMAX^TM (without hypoxanthine) were exposed to serial drug dilutions in microtiter plates. After 48 h of incubation at 37 °C in a reduced oxygen atmosphere, 0.5 μCi [^3H]-hypoxanthine was added to each well of the plate. Cultures were incubated for a further 24 h before they were harvested onto glass-fiber filters and washed with distilled water. The radioactivity was counted using a Betaplate^TM liquid scintillation counter (Wallac, Zurich). The results were recorded as counts per minute (CPM) per well at each drug concentration and expressed as a percentage of the untreated controls. IC50 values were calculated from the sigmoidal inhibition curves using Microsoft Excel.

Another series relates to CCRF-CEM leukemia cells. Nature of the series: XTT viability assay, CCRF-CEM. As to conditions: Homo sapiens, 72 h, read-out: metabolic active cells in % of control. In kind it is cell-based. How it is done:
as §1, §2

Series [4] deals with MDA-MB-231 breast cancer cells. Nature of the series: XTT viability assay, MDA-MB-231. As to conditions: Homo sapiens, 72 h, read-out: metabolic active cells in % of control; for viability at 5 µg/mL: MDA-MB-231, 5 µg/mL; for viability at 50 µg/mL: MDA-MB-231, 50 µg/mL. Format: cell-based. How it is done:
as §1, §2

SMILES strings stand for the structures. Several values for one entry are separate records, joined by “and”; a condition that tells them apart may be missing. Equal entries are not always repeated.

Molecule `O=C1C=CC(O)(CCN2CCOCC2)C=C1` [Compound 14c, N-[2-(1-Hydroxy-4-oxocyclohexa-2,5-dien-1-yl)ethyl]morpholine] gave a melting point of 98 to 99 °C. In addition, in series [1], the viability at 5 µg/mL was 141% and the viability at 50 µg/mL is 0.79%. In the series on U251 glioblastoma cells, the viability at 5 µg/mL was 68.3% and the viability at 50 µg/mL worked out at 1.11%. Moreover, in series [2] (5 µg/mL), the “cytotoxicity against most cell lines (in words)” value is “only minor cytotoxicity”. In addition, in series [3], the IC50 was 10.9 µM and the “SI (IC50 in L6 cells/IC50 P. falciparum)” value stood at 0.3. Also, in the series with CCRF-CEM leukemia cells, the viability at 5 µg/mL amounted to 22.8% and the viability at 50 µg/mL is -0.18%. Further, in series [4], the viability at 5 µg/mL came out at 56.8% and the viability at 50 µg/mL was 4.33%.
Molecule `O=C1C=CC(O)(CCN2C(=O)C=CC2=O)C=C1` [Compound 13b, N-[2-(1-Hydroxy-4-oxocyclohexa-2,5-dien-1-yl)ethyl]maleimide] came in with a melting point of 151 to 152 °C. In addition, in series [1], the viability at 5 µg/mL turned out to be 14.6% and the viability at 50 µg/mL came to 0.62%. For the same molecule, in the series on U251 glioblastoma cells, the viability at 5 µg/mL came out at 95.2% and the viability at 50 µg/mL was -0.41%. Moreover, the “metabolic activity, % of the control” value in series [2] (5 µg/mL) is given as “below 40 % of the control”. Also, in series [3], the IC50 came out at 4.42 µM and the “SI (IC50 in L6 cells/IC50 P. falciparum)” value amounted to 6.1. For the same molecule, in the series with CCRF-CEM leukemia cells, the viability at 5 µg/mL was -1.08% and the viability at 50 µg/mL came to 3.46%. Also, in series [4], the viability at 5 µg/mL was found to be 1.71% and the viability at 50 µg/mL came to 6.61%.
For `O=C1C=CC(O)(CCN2C(=O)c3cccnc3C2=O)C=C1` [Compound 13f, N-[2-(1-Hydroxy-4-oxocyclohexa-2,5-dien-1-yl)ethyl]pyridine-2,3-dicarboximide], the melting point lay in the range of 167 to 168 °C. In series [1], the “cytotoxicity against human MRC-5 cells (in words)” value is listed as “did not show any cytotoxicity”, the viability at 5 µg/mL came to 109% and the viability at 50 µg/mL stood at 112%. In the series with U251 glioblastoma cells, the viability at 5 µg/mL was determined as 91.8% and the viability at 50 µg/mL was determined as 93.7%. In addition, in series [2], the “overall cytotoxicity (in words)” value is “negligible”. In addition, in series [3], the IC50 was 28 µM and the “SI (IC50 in L6 cells/IC50 P. falciparum)” value was 5.5. Also, in the series on CCRF-CEM leukemia cells, the viability at 5 µg/mL is 99.8% and the viability at 50 µg/mL stood at 21.7%. Also, in series [4], the viability at 5 µg/mL was 112% and the viability at 50 µg/mL turned out to be 23%.
Regarding `O=C1C=CC(O)(CCN2C(=O)C3=C(CCCC3)C2=O)C=C1` [Compound 13i, N-[2-(1-Hydroxy-4-oxocyclohexa-2,5-dien-1-yl)ethyl]-3,4,5,6-tetrahydrophthalimide], the viability at 5 µg/mL was 5.69% in series [1], 15.9% in the series on U251 glioblastoma cells, 2.26% in the series with CCRF-CEM leukemia cells and 32.4% in series [4]. For the same molecule, the viability at 50 µg/mL was 0.51% in series [1], 0% in the series with U251 glioblastoma cells, 1.23% with CCRF-CEM leukemia cells and 16.6% in series [4]. For the same molecule, the “metabolic activity, % of the control” value in series [2] (5 µg/mL) is “below 40 % of the control”. Also, in series [3], the IC50 is 1.28 µM.
As for `O=C1C=CC(O)(CCN2Cc3ccccc3C2)C=C1` [Compound 14a, N-[2-(1-Hydroxy-4-oxocyclohexa-2,5-dien-1-yl)ethyl]isoindoline], the melting point is 103 to 104 °C and 103 °C. Further, in series [1], the “cytotoxicity against human MRC-5 cells (in words)” value is on record as “did not show any cytotoxicity”, the viability at 5 µg/mL amounted to 119% and the viability at 50 µg/mL worked out at 95.1%. In the series with U251 glioblastoma cells, the viability at 5 µg/mL was determined as 99.5% and the viability at 50 µg/mL was 95.5%. Further, in series [2], the “overall cytotoxicity (in words)” value is listed as “negligible”. For the same molecule, in series [3], the IC50 came out at 2.91 µM and the “SI (IC50 in L6 cells/IC50 P. falciparum)” value came out at 1.0. In addition, in the series on CCRF-CEM leukemia cells, the viability at 5 µg/mL worked out at 94.6% and the viability at 50 µg/mL is 58%. Further, in series [4], the viability at 5 µg/mL came to 95% and the viability at 50 µg/mL was found to be 92.5%.
Molecule `O=C1C=CC(O)(CCN2C(=O)C3CC=CCC3C2=O)C=C1` (centres unmarked) [Compound 13j, N-[2-(1-Hydroxy-4-oxocyclohexa-2,5-dien-1-yl)ethyl]-1,2,3,6-tetrahydrophthalimide] yielded a melting point of 145 to 146 °C. In series [1], the “cytotoxicity against human MRC-5 cells (in words)” value was “did not show any cytotoxicity”, the viability at 5 µg/mL came to 96.1% and the viability at 50 µg/mL came to 50.3%. Moreover, in the series on U251 glioblastoma cells, the viability at 5 µg/mL stood at 96.5% and the viability at 50 µg/mL was 76.7%. Besides, the “overall cytotoxicity (in words)” value in series [2] was “negligible”. In series [3], the IC50 worked out at 3.93 µM and the “SI (IC50 in L6 cells/IC50 P. falciparum)” value is 2.0. For the same molecule, in the series on CCRF-CEM leukemia cells, the viability at 5 µg/mL came to 89.9% and the viability at 50 µg/mL was found to be 15.4%. Also, in series [4], the viability at 5 µg/mL is 87.7% and the viability at 50 µg/mL came to 89%.
As for `O=C1C=CC(O)(CCN2C(=O)COCC2=O)C=C1` [Compound 13g, N-[2-(1-Hydroxy-4-oxocyclohexa-2,5-dien-1-yl)ethyl]morpholine-3,5-dione], the melting point lay in the range of 142 to 143 °C. Moreover, in series [1], the “cytotoxicity against human MRC-5 cells (in words)” value was “did not show any cytotoxicity”, the viability at 5 µg/mL is 116% and the viability at 50 µg/mL amounted to 89.6%. Moreover, in the series on U251 glioblastoma cells, the viability at 5 µg/mL stood at 94.7% and the viability at 50 µg/mL was 65.6%. The “overall cytotoxicity (in words)” value in series [2] is listed as “negligible”. Further, in series [3], the IC50 worked out at 11.8 µM and the “SI (IC50 in L6 cells/IC50 P. falciparum)” value is recorded as 6.6. In the series with CCRF-CEM leukemia cells, the viability at 5 µg/mL was 86.9% and the viability at 50 µg/mL was found to be 8.05%. Also, in series [4], the viability at 5 µg/mL is 104% and the viability at 50 µg/mL was 7.63%.
